Laboratory results from paper PMC12472753, “Fused Imidazotriazole-Based Therapeutics: A Multidisciplinary Study Against Diabetes-Linked Enzymes Alpha-Amylase and Alpha-Glucosidase Using In Vitro and In Silico Methods” (Pharmaceuticals, 2025).

Tests used:
[1] = biological target: T1, α-amylase (Sus scrofa, UniProt P00690); experiment: Alpha-amylase inhibition assay (DNS method); type: biochemical; conditions: in vitro, triplicate; read-out: IC50 = α-Amylase µM ± SEM
T1 sequence (P00690 16-511): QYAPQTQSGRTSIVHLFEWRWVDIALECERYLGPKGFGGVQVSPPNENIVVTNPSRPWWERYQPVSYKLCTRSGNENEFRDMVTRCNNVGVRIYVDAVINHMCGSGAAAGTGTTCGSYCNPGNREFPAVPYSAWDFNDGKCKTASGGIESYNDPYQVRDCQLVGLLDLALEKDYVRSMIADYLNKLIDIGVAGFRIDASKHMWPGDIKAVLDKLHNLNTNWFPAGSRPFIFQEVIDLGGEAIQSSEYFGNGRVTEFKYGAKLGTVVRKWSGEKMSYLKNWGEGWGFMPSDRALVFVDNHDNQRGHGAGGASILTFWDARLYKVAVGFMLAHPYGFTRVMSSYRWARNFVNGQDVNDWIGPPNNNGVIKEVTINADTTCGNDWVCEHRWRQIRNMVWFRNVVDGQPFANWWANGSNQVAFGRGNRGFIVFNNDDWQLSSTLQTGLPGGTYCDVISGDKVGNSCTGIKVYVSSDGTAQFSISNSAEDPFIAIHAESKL
Experimental: The in vitro alpha-amylase study was conducted and the enzyme was sourced from Merck (Sigma-Aldrich, Hamburg, Germany). The inhibitory activity of the synthesized compounds against α-amylase was evaluated using a standard protocol with slight modifications [44]. In brief, 250 µL of the test compound (prepared at varying concentrations, 50–250 µg/mL) was mixed with 250 µL of starch solution [1% (w/v)] and 250 µL of α-amylase solution (1 U/mL). The reaction mixture was incubated at 20 °C for 3 min, after which enzymatic activity was terminated by the addition of 500 µL of dinitrosalicylic acid (DNS) color reagent. The mixture was then heated in a boiling water bath at 85 °C for 15 min, cooled to room temperature for 5 min, and diluted with 4.5 mL of distilled water to a final volume of 6.0 mL. Absorbance was measured at 540 nm using a UV-visible spectrophotometer. […] The percentage inhibition was calculated and all experiments were conducted in triplicate.

[2] = biological target: α-glucosidase (Saccharomyces cerevisiae, UniProt P53341); type: biochemical; conditions: in vitro, triplicate; read-out: IC50 = α-Glucosidase µM ± SEM
α-glucosidase, sequence (P53341 whole entry): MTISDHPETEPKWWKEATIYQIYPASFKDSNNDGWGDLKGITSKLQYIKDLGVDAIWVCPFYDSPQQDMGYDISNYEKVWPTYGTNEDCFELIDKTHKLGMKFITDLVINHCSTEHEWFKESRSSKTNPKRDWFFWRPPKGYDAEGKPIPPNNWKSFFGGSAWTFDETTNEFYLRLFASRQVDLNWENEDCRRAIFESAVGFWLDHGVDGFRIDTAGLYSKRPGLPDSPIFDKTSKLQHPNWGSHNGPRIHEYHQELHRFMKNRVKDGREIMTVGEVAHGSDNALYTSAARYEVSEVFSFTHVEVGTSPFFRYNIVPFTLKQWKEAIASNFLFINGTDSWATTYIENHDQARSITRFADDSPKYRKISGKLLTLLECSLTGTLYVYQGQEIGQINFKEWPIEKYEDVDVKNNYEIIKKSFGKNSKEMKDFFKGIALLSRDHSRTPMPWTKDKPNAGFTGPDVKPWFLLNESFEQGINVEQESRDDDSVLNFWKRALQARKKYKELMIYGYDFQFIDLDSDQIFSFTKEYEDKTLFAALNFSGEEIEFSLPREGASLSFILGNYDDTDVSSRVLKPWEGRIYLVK
Experimental: The in vitro alpha-glucosidase study was conducted and the enzyme was sourced from Merck (Sigma-Aldrich). The α-glucosidase inhibitory activity was determined following a standard microplate-based method [45]. In each well of a 96-well plate, 35 µL of phosphate buffer (pH 6.8), 31 µL of the test compound solution (50–250 µg/mL), and 18 µL of p-nitrophenyl-α-D-glucopyranoside (pNPG, substrate) were added and pre-incubated at 37 °C for 5 min. The reaction was initiated by the addition of 16 µL of α-glucosidase (0.15 U/mL in phosphate buffer), resulting in a total assay volume of 100 µL. After incubation, the reaction was terminated by adding 100 µL of sodium carbonate (200 mM), and absorbance was recorded at 405 nm using a microplate reader. […] The percentage inhibition was calculated according to the following equation: % inhibition=(Abs control − Abs sample)/Abs control×100
All assays were performed in triplicate to ensure reproducibility.

Q: What does the source list for “5-(2,4-Dihydroxy-5-methylphenyl)-6H-imidazo{1,2-b]{1,2,4]triazole-2-carboxylic acid [Compound 7]”?
A: IC50 [1]: 7.1 ± 0.3 µM; IC50 [2]: 7.7 ± 0.2 µM
